Several values for one entry are separate records, joined by “and”; a condition that tells them apart may be missing. Equal values may be shown once.
How the values were obtained:
S. aureus biofilm [1] = test: Biofilm formation in polystyrene microplates, crystal violet, spectrophotometric at 492 nm; format: cell-based, Staphylococcus aureus; conditions: for reduction of the biofilm (formation) / decrease of biofilm production: NAC 8 mg/ml, 24 hours
Protocol: (§1) The effects of NAC and TAPh on the biofilm produced by S. aureus were evaluated on four strains of the microorganism designated 1393, 1876, 1880 and 1890.
Formation of the biofilms was quantified spectrophotometrically in polystyrene microplates with U-well geometry (Corning Incorporated, New York).
In more detail, the effect of NAC on biofilm formation was evaluated as follows: overnight broth cultures in tryptic soy broth (TSB) with glucose added (0.25%) (TSBG) were diluted 1:100 in TSBG. Appropriate dilutions of NAC at concentrations varying respectively from 8 mg/ml to 0.007 mg/ml were added to the suspensions (100 μl each). After incubation at 37° C. for 24 hours, the microplates were washed three times with 10 mM phosphate buffer pH 7.4 (PBS), treated with Bouin fixative and then stained with crystal violet (0.01%).
(§2) The biofilm adhering to the walls of the microplates was washed with PBS, suspended in 10% sarcosyl and measured spectrophotometrically at 492 nm.

S. aureus biofilm [2] = test: Disruption of fully consolidated biofilm (48 hours); format: cell-based, Staphylococcus aureus
Protocol: as §1, §2
(§3) The same technique was employed for calculating the residual quantity of biofilm after treatment with NAC alone and combined with TAPh on S. aureus. For this purpose, biofilms with two different degrees of maturity: initial (5 hours) and fully consolidated (48 hours) were exposed to suitable concentrations of NAC (from 8 mg/ml to 0.007 mg/ml) with added TAPh at the concentrations that can be reached in vivo in the pulmonary tree.

S. aureus [3] = test: Viability (CFU/ml) of biofilm cells after sonication and seeding; format: cell-based, Staphylococcus aureus; conditions: maximum concentration, range over strains
Protocol: as §1
At the same time, the biofilms thus treated were submitted to sonication in order to disperse the cells that were still adhering, and these were seeded on rich medium after suitable dilution for calculating the vital elements surviving the various treatments.

P. aeruginosa = conditions: Antimicrob. Agents Chemother., 35, 1258, (1991); cited from earlier work
S. epidermidis = conditions: J. Ant. Chem., 39, 643, (1997); cited from earlier work
S. aureus [4] = test: Bacterial growth in broth culture with NAC; format: cell-based, Staphylococcus aureus; conditions: NAC up to maximum concentration 8 mg/ml
S. aureus biofilm [5] = test: Disruption of biofilm at initial maturation (5 hours); format: cell-based, Staphylococcus aureus; conditions: for disruption of biofilm formed after 5 hours (initial maturation): maximum concentration (8 mg/ml)
Protocol: as §1, §2, §3

In the case of CC(=O)N[C@@H](CS)C(=O)O [NAC, N-acetyl-cysteine], the “reduction of the biofilm (formation)” value (S. aureus biofilm [1]; S. aureus 1393) is reported as 68.2%, the “decrease of biofilm production” value (S. aureus biofilm [1]; S. aureus 1876) is reported as 30.3% and the “decrease of biofilm production” value (S. aureus biofilm [1]; S. aureus 1880) is reported as 41.1%. For the same compound, the “reduction of the biofilm (formation)” value (S. aureus biofilm [1]; S. aureus 1890) was 56.3%, the glycocalyx production (S. aureus biofilm [1]; all the strains) was “inhibited glycocalyx production in all the strains” and the “reduction values with NAC on its own, fully consolidated biofilms (range over strains, restated)” value (S. aureus biofilm [2]; NAC alone, second range printed) was 58.1-62%. For the same compound, the “reduction of mucopolysaccharide material of fully consolidated biofilms” value (S. aureus biofilm [2]; maximum concentration, four strains assayed, one value each, strain per value not given) was 62% and 60.5% and 58.1% and 65.5%, the “reduction in colony forming units per ml (CFU/ml)” value (S. aureus [3]; cells of mature (consolidated) biofilms) was 33.7% to 70.6 and the “reduction in colony forming units per ml (CFU/ml)” value (S. aureus [3]; cells of the youngest biofilms (initial maturation)) was 33.7% to 91. The disruption of biofilms (P. aeruginosa) was “ability to disrupt biofilms”, the “inhibition of biofilm formation” value (S. epidermidis) was “inhibit their formation” and the “visible changes in bacterial growth” value (S. aureus [4]) was “did not cause visible changes in bacterial growth”. The “reduction values with NAC on its own, initial biofilms (range over strains, restated)” value (S. aureus biofilm [5]; NAC alone, first range printed) was 32.5-65.5%, the “disruption of biofilm formed after 5 hours (initial maturation)” value (shortened to “disruption of biofilm formed”) (S. aureus biofilm [5]; S. aureus 1876) was 32.5% and the “disruption of biofilm formed” value (S. aureus biofilm [5]; strain 1393) was 61.1%. The “disruption of biofilm formed” value (S. aureus biofilm [5]; strain 1880) was 57.3% and the “disruption of biofilm formed” value (S. aureus biofilm [5]; strain 1890) was 58.6%.

Source: patent US20050107474A1, “Pharmaceutical compositions for the treatment of infections of the respiratory system by pathogenic agents” (priority 2002, published 2005)
